Where two headings read alike, the source gives them in different places.
Target: T1, cloned human dopamine D3 receptors (Homo sapiens, UniProt P35462)
T1 construct: expressed in transfected cells; membrane homogenate
Experiment: [N-Methyl-3H]Spiroperidol binding to cloned human dopamine D3 receptors (Protocol 1)
Procedure, shortened: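 Radioligand displacement with [N-methyl-3H]spiroperidol used a physiological-salt Tris buffer (0.05 M, pH 7.7; NaCl 120 mM, KCl 5 mM, CaCl2 2 mM, MgCl2 1 mM) and membranes of a high-expressing stable CHO clone carrying human D3. Total ligand concentration came from measured added CPM; 0.1% ascorbic acid was optional for oxidizable compounds.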

[1] = the 13th table, unit inferred, read-out: D3Ki

T1 sequence (P35462 whole entry): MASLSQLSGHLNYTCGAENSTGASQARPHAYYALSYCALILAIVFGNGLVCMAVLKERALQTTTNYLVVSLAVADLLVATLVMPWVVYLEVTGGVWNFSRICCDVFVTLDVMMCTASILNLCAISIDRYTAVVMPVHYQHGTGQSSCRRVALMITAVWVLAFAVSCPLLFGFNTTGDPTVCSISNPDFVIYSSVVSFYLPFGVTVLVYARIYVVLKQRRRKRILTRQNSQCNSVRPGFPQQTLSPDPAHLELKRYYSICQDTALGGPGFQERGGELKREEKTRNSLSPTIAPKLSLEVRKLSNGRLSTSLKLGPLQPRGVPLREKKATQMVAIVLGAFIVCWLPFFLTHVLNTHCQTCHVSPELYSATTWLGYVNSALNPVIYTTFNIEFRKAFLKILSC

SMILES | Ki (read-out: D3K1) | Ki [1] | further results
O=C(NCCCCN1CCN(c2csc3cc(C(F)(F)F)ccc23)CC1)c1cc2ccccc2s1 [814238A] | 1.9 nM |  | 
O=C(NCCCCN1CCN(c2csc3cc(C(F)(F)F)ccc23)CC1)c1ccc(-c2ccccc2)cc1 [815547A] |  |  | Ki (Table 2, read-out: D3K1): 3.43 nM
O=C(NCCCCN1CCCN(c2csc3cc(F)ccc23)CC1)c1ccc2ccccc2c1 [822223G] |  | 2.45 nM | 
O=C(NCCCCN1CCCN(c2csc3cc(F)ccc23)CC1)c1cc2ccccc2s1 [822224G] |  | 1.07 nM | 
O=C(NCCCCN1CCCN(c2csc3cc(F)ccc23)CC1)c1ccco1 [S981843] |  | 0.066 nM | 
CCOc1ccc(C(=O)NCCCCN2CCN(c3csc4cc(C(F)(F)F)ccc34)CC2)cc1 [compound 815541] | 12 nM |  | 
O=C(NCCCCN1CCN(c2csc3cc(C(F)(F)F)ccc23)CC1)c1ccc(F)cc1F [compound 815542] | 5.6 nM |  | 
O=C(NCCCCN1CCN(c2csc3cc(C(F)(F)F)ccc23)CC1)c1ccc2c(c1)OCO2 [compound 815544] | 1.7 nM |  | 
CCCCOc1ccc(C(=O)NCCCCN2CCN(c3csc4cc(C(F)(F)F)ccc34)CC2)cc1 [compound 815545] | 38.6 nM |  | 
O=C(NCCCCN1CCN(c2csc3cc(C(F)(F)F)ccc23)CC1)c1sc2ccccc2c1Cl [compound 815546] | 49 nM |  | 
O=C(NCCCCN1CCN(c2csc3cc(C(F)(F)F)ccc23)CC1)c1ccc(Cl)cc1 [compound 815548] | 1.6 nM |  | 
O=C(NCCCCN1CCN(c2csc3cc(C(F)(F)F)ccc23)CC1)c1ccc(Br)cc1 [compound 815551] | 4.3 nM |  | 
COc1ccccc1C(=O)NCCCCN1CCN(c2csc3cc(C(F)(F)F)ccc23)CC1 [compound 815554] | 9.7 nM |  | 
O=C(NCCCCN1CCN(c2csc3cc(C(F)(F)F)ccc23)CC1)c1ccc(C(F)(F)F)cc1 [compound 815555] | 7 nM |  | 
O=C(NCCCCN1CCN(c2csc3cc(C(F)(F)F)ccc23)CC1)c1ccco1 [compound 815556] | 6.4 nM |  | 
O=C(NCCCCN1CCN(c2csc3cc(C(F)(F)F)ccc23)CC1)c1c(F)cccc1F [compound 815557] | 8.7 nM |  | 
O=C(NCCCCN1CCCN(c2csc3cc(F)ccc23)CC1)c1ccc(OC(F)(F)F)cc1 [compound 822152] |  | 4.5 nM | 
O=C(NCCCCN1CCCN(c2csc3cc(F)ccc23)CC1)c1cccc(F)c1 [compound 822154] |  | 5.3 nM | 
COc1ccccc1C(=O)NCCCCN1CCCN(c2csc3cc(F)ccc23)CC1 [compound 822157] |  | 1.4 nM | 
CC(C)(C)c1ccc(C(=O)NCCCCN2CCCN(c3csc4cc(F)ccc34)CC2)cc1 [compound 822198] |  | 10.5 nM | 

Reference: patent US7550469B2, “Heterocyclic amide derivatives and their use as dopamine D3 receptor ligands” (Aventis Pharmaceuticals Inc., priority 2001, dated 2009)
